# From US8017584B2, “GD3-mimetic peptides” (Otsuka Pharmaceutical Co., Ltd., priority 2000, dated 2011)
# “And” between values parts separate entries of the source, which are not always exact repeats. Equal values may be shown once.
# Tests used:
# [1] = test system: T-cell-rich lymphocytes / IL-2-dependent CTLL2 cells; assay: Cell response test: IL-2 activity (3H thymidine up-take of CTLL2 cells) in supernatant of spleen cells of mice immunized with R4 peptide (R4-KLH); type: cell-based, mouse; conditions: for activation of T cells: R4-KLH-immunized mice; for 3H Thymidine up-take into CTLL2 cells, mean ± SE (4 wells): mice immunized with R4 peptide
# Protocol: Using a fusion peptide R4-KLH obtained in Example 3 (4) between GD3R4 and KLH or a MAP form fusion peptide R4MAP-KLH created between GD3R4 and KLH, immunization was performed as described in (1) above.
# Briefly, an emulsion mixed with an adjuvant (1:1, by volume) was administered to each member of groups of mice, each group consisting of 3 mice (CD-1), in an amount of 100 μL/mouse (for one administration (ip), peptide 30 μg/mouse) for immunization. In the case of R4-KLH, administration was performed every one week for one month, and subsequently every two weeks for one month; and in the case of R4MAP-KLH, every one week for 2 months. In any case, 4 days after the final immunization, blood was collected to thereby prepare antiserum samples.
# The spleen aseptically removed from each of the above-immunized mice was minced in a 10% FCS-supplemented RPMI 1640 medium. By use of a nylon wool column, T-cell-rich lymphocytes were prepared and the cells were counted. The above medium containing the cells in an amount of 10^5 cells per 150 μL was added to each of the wells of a culture plate. PHA was added so as to attain a final concentration of 1 μg/mL. A peptide of the present invention or any of different gangliosides in PBS was added, and the mixture was incubated for 96 hours. A supernatant (100 μL) was obtained from each well. The IL-2 activity of the supernatant was determined through use of IL-2-dependent mouse cells, CTLL2. Briefly, the supernatant (100 μL) diluted 2 to 50-fold with a medium was added to the wells in an amount of 10^4 CTLL2 cells/well, followed by incubation at 37° C. for 48 hours. Subsequently, 3H-thymidine (0.5 μCi) was added to each well, followed by incubation for 6 hours. CTLL2 cells were recovered on a paper filter and counted for 3H.
# Anti-OAcGD3 antibody = assay: ELISA of immobilized MAP-form peptides with control anti-OAcGD3 antibody; type: binding; conditions: MAP form 100 ng/well
# Protocol: A 0.1M NaHCO3 solution containing a GD3-mimetic peptide of the invention in the above MAP form (100 ng/100 μL) was added to the wells of a 96-well micro-titer plate, for immobilization at room temperature for one hour. Subsequently, in a manner similar to the ELISA method employed in Example 2, binding affinity of the GD3-mimetic peptide to GD3 antibody 4F6 was investigated.
# Anti-GD2 antibody and anti-OAcGD3 antibody (Cerato, E., et al., Hybridoma, 16(4), 307-316 (1997)) were used as controls (these antibodies were kindly provided by from Dr. Portoukalian).
# GD3 antibody 4F6 = assay: ELISA of immobilized phage clones with GD3 antibody 4F6 (Example 2); type: binding, mouse; conditions: for absorbance OD450-OD620, binding to GD3 antibody 4F6: phage clone immobilized, duplicate lines
# Protocol: A 0.1M NaHCO3 solution containing each of the phage clones obtained in Example 1 (10^11, 10^10, or 10^9 titer/100 μL) was added to the wells of a 96-well microtiter plate (product of Nunc), for immobilization of the phage clones at room temperature for one hour. The supernatant was removed, then the wells were subjected to blocking by use of a blocking solution ([…]; TBS containing 1% BSA, 0.1% skim milk, and 0.02% Tween 20; pH 7.5) at 37° C. for four hours.
# The supernatant was removed, then GD3 antibody 4F6 (100 μL), serving as a primary antibody, was added to each well for reaction under shaking at room temperature for two hours. After completion of reaction, the supernatant was removed, then the wells were washed six times with a washing solution (400 μL for each well, TBS containing 0.05% Tween 20). Subsequently, a secondary antibody (anti-mouse IgG-HRP, product of Santa Cruz Biotechnology, catalogue No. SC-2031, Lot. No. C089) which was diluted 5,000-fold by use of a blocking solution prepared in advance was added to the wells (100 μL to each well) for reaction under shaking at room temperature for one hour. After completion of reaction, the wells were washed four times with a washing solution (400 μL for each well), then a detection reagent (TMB Microwell; product of KPL, Catalogue No. 50-76-04, Lot. No. WF075) was added to the wells (100 μL to each well), and the mixture was allowed to stand for five minutes at room temperature.
# 1N-Hydrochloric acid (100 μL) was added to each well for stopping the reaction. Absorbance of each well was measured at 450 nm and 620 nm, and “OD450-OD620” was calculated. A Multiscan (product of Labosystems) was used in measurement of absorbance. A well in which phages had not been immobilized served as a blank, and the absorbance of each well was determined by subtracting the blank value from the “as-measured” value.
# [2] = stimulant 1 μg/ml, supernatant dilution 1/20
# [3] = stimulant 1 μg/ml, supernatant dilution 1/50
# [4] = stimulant 1 μg/ml, supernatant dilution ½
# [5] = stimulant 1 μg/ml, supernatant dilution ⅕
# [6] = stimulant 2 μg/ml, supernatant dilution 1/20
# [7] = stimulant 2 μg/ml, supernatant dilution 1/50
# [8] = stimulant 2 μg/ml, supernatant dilution ½
# [9] = stimulant 2 μg/ml, supernatant dilution ⅕
# [10] = stimulant 5 μg/ml, supernatant dilution 1/20
# [11] = stimulant 5 μg/ml, supernatant dilution 1/50
# [12] = stimulant 5 μg/ml, supernatant dilution ½
# [13] = stimulant 5 μg/ml, supernatant dilution ⅕
Sequence,activation of T cells [1],"3H Thymidine up-take into CTLL2 cells, mean ± SE (4 wells) [1, 2]","3H Thymidine up-take into CTLL2 cells, mean ± SE (4 wells) [1, 3]","3H Thymidine up-take into CTLL2 cells, mean ± SE (4 wells) [1, 4]","3H Thymidine up-take into CTLL2 cells, mean ± SE (4 wells) [1, 5]","3H Thymidine up-take into CTLL2 cells, mean ± SE (4 wells) [1, 6]","3H Thymidine up-take into CTLL2 cells, mean ± SE (4 wells) [1, 7]","3H Thymidine up-take into CTLL2 cells, mean ± SE (4 wells) [1, 8]","3H Thymidine up-take into CTLL2 cells, mean ± SE (4 wells) [1, 9]","3H Thymidine up-take into CTLL2 cells, mean ± SE (4 wells) [1, 10]","3H Thymidine up-take into CTLL2 cells, mean ± SE (4 wells) [1, 11]","3H Thymidine up-take into CTLL2 cells, mean ± SE (4 wells) [1, 12]","3H Thymidine up-take into CTLL2 cells, mean ± SE (4 wells) [1, 13]","ELISA absorbance, Anti-OAcGD3 antibody (Anti-OAcGD3 antibody; Serum % 12.50%)","ELISA absorbance, Anti-OAcGD3 antibody (Anti-OAcGD3 antibody; Serum % 25%)","ELISA absorbance, Anti-OAcGD3 antibody (Anti-OAcGD3 antibody; Serum % 50%)","ELISA absorbance, Anti-OAcGD3 antibody (Anti-OAcGD3 antibody; Serum % 100%)","absorbance OD450-OD620, binding to GD3 antibody 4F6 (GD3 antibody 4F6; 10^9 titer/well)","absorbance OD450-OD620, binding to GD3 antibody 4F6 (GD3 antibody 4F6; 10^11 titer/well)","absorbance OD450-OD620, binding to GD3 antibody 4F6 (GD3 antibody 4F6; 10^10 titer/well)",also measured
"GLAPPDYAERFELLS [GD3R3, tested as phage clone, MAP form or peptide]",T cells have been confirmed to have activated,1491 ± 364,682 ± 120,5577 ± 1063,2986 ± 327,1527 ± 337,736 ± 137,6351 ± 1314,3184 ± 439,1684 ± 375,812 ± 151,7898 ± 1496,3652 ± 681,0.031,0.026,0.031,0.044,0.05 and 0.086,0.094 and 0.108,,
"RHAYRSMAEWGFLYS (RHAYRSMAQWGFLYS) [GD3R4, tested as phage clone, MAP form or peptide]",T cells have been confirmed to have activated,2420 ± 561,1017 ± 182,6781 ± 1549,4413 ± 854,7934 ± 1031,2742 ± 751,15383 ± 2194,10375 ± 1708,8354 ± 957,3058 ± 568,18692 ± 2310,12657 ± 1624,0.045,0.043,0.047,0.061,0.109 and 0.116,0.386 and 0.315,0.14 and 0.102,"binding affinity to GD3 antibody 4F6 (words, FIG. 1) (GD3 antibody 4F6; phage clones): strongest binding affinity"
"LAPPRPRSELVFLSV (LAPPRPRSQLVFLSV) [GD3R1, tested as phage clone, MAP form or peptide]",,949 ± 136,225 ± 38,3218 ± 716,1876 ± 281,845 ± 147,220 ± 40,3417 ± 542,1864 ± 327,901 ± 152,236 ± 45,3469 ± 612,1781 ± 285,0.04,0.041,0.046,0.053,0.017 and 0.026,0.094 and 0.086,0.067 and 0.055,
"PHFDSLLYPCELLGC (PHFDSLLYPCQLLGC) [GD3R2, tested as phage clone, MAP form or peptide]",,745 ± 136,178 ± 38,2857 ± 493,1714 ± 239,694 ± 141,163 ± 41,2764 ± 322,1653 ± 286,748 ± 162,174 ± 32,2849 ± 396,1628 ± 245,0.021,0.023,0.027,0.038,0.055 and 0.034,,0.128 and 0.109,
